Data reported in ChEMBL document CHEMBL5143665, “Discovery and preclinical evaluations of WX-0593, a novel ALK inhibitor targeting crizotinib-resistant mutations” (Bioorg Med Chem Lett, 2022).
The source made the active and inactive calls. The calls are words filed in the database; no cut-off is given here.

Assays:
cells [1] = settings: Mus musculus, BaF3, 72 h
[2] = Clearance in Balb/c nude mouse at 1 mg/kg, iv; format: ADME, organism-based; settings: in vivo
BaF3 [3] = experiment: Antiproliferative activity against crizotinib resistant mouse BaF3 cells expressing EML4 fused ALK L1152R mutant assessed as reduction in cell viability incubated for 72 hrs by Celltitre-Glo luminescent assay; format: functional, cell-based; settings: BaF3, 72 h
BaF3 [4] = experiment: Antiproliferative activity against crizotinib resistant mouse BaF3 cells expressing EML4 fused ALK I1171S mutant assessed as reduction in cell viability incubated for 72 hrs by Celltitre-Glo luminescent assay; format: functional, cell-based; settings: BaF3, 72 h
BaF3 [5] = experiment: Antiproliferative activity against mouse BaF3 cells harbouring CD74-ROS1-S1986F mutant assessed as reduction in cell viability incubated for 72 hrs by Celltitre-Glo luminescent assay; format: functional, cell-based; settings: BaF3, 72 h
[6] = Toxicity in nude mouse xenografted with crizotinib-resistant patient derived LU-01-0319R cells assessed as tolerance at 2.5 to 10 mg/kg, po dosed once daily for 21 days; format: organism-based; settings: in vivo, 504 h, dose 2.5-10 mg/kg, time 21 day
BaF3 [7] = experiment: Antiproliferative activity against crizotinib resistant mouse BaF3 cells expressing EML4 fused ALK T1151Tins mutant assessed as reduction in cell viability incubated for 72 hrs by Celltitre-Glo luminescent assay; format: functional, cell-based; settings: BaF3, 72 h, read-out: IC50
BaF3 [8] = experiment: Antiproliferative activity against mouse BaF3 cells harbouring SLC34A2-ROS1-L2026M mutant assessed as reduction in cell viability incubated for 72 hrs by Celltitre-Glo luminescent assay; format: functional, cell-based; settings: BaF3, 72 h
[9] = Cmax in Sprague-Dawley rat at 8 mg/kg, po; format: ADME, organism-based; design: dose 8 mg/kg, route po; settings: in vivo
cells [10] = settings: Mus musculus, Ba/F3 EML4-ALK, 72 h
[11] = Toxicity in nude mouse xenografted with crizotinib-resistant patient derived LU-01-0319R cells assessed as body weight change at 2.5 to 10 mg/kg, po dosed once daily for 21 days; format: organism-based; settings: in vivo, 504 h, dose 2.5-10 mg/kg, time 21 day
BaF3 [12] = experiment: cells; settings: Mus musculus
Description: Antiproliferative activity against mouse BaF3 cells harbouring ALK wild type assessed as reduction in cell viability by Celltitre-Glo luminescent assay

LU-01-0319R [13] = experiment: Antitumor activity against crizotinib-resistant patient derived LU-01-0319R cells xenografted in nude mouse at 2.5 to 10 mg/kg, po dosed once daily for 21 days; format: functional, organism-based; settings: Homo sapiens, dose 2.5-10 mg/kg, time 21.0 day
NCI-H3122 [14] = experiment: Inhibition of AKT phosphorylation in human NCI-H3122 cells at highest concentration by Western blotting analysis; format: cell-based
BaF3 [15] = experiment: Antiproliferative activity against crizotinib resistant mouse BaF3 cells expressing EML4 fused ALK L1152P mutant assessed as reduction in cell viability incubated for 72 hrs by Celltitre-Glo luminescent assay; format: functional, cell-based; settings: BaF3, 72 h
BaF3 [16] = experiment: Antiproliferative activity against mouse BaF3 cells harbouring CD74-ROS1-D2033N mutant assessed as reduction in cell viability incubated for 72 hrs by Celltitre-Glo luminescent assay; format: functional, cell-based; settings: BaF3, 72 h
[17] = target: T1, Signal transducer and activator of transcription 5A (Homo sapiens) (UniProt P42229); experiment: Inhibition of STAT5 phosphorylation in human NCI-H3122 cells by Western blotting analysis; format: cell-based; settings: DDE = dose-dependent effect
T1 sequence (whole entry): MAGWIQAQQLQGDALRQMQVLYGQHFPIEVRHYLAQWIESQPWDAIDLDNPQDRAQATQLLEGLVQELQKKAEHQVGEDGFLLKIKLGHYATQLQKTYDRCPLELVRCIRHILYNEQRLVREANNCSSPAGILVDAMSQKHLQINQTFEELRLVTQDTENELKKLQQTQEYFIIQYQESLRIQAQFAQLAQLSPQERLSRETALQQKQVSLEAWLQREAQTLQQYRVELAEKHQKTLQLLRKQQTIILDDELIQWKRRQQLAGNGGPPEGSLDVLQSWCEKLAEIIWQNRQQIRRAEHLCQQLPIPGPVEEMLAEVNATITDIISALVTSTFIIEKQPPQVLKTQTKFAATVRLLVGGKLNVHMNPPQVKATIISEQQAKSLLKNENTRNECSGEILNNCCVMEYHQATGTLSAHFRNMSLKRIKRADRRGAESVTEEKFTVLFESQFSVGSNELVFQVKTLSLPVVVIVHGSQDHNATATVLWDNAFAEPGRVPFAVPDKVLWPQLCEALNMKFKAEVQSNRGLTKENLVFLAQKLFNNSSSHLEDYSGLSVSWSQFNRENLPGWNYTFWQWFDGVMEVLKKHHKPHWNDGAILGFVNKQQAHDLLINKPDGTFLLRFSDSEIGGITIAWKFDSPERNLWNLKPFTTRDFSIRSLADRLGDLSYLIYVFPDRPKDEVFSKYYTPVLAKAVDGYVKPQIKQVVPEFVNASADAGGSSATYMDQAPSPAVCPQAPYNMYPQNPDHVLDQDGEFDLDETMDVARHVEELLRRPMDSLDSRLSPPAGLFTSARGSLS

[18] = AUC (0 to last) in Cynomolgus monkey at 2 mg/kg, po; format: ADME, organism-based, Macaca fascicularis; design: time 0 - last, dose 2 mg/kg, route po; settings: in vivo
BaF3 [19] = experiment: cells; settings: Mus musculus; remark: listed apart in the source
Description: Antiproliferative activity against mouse BaF3 cells harbouring ALK L1196M mutant assessed as reduction in cell viability by Celltitre-Glo luminescent assay

LU-01-0319 = experiment: Antitumor activity against crizotinib-resistant patient derived LU-01-0319 cells xenografted in mouse assessed as tumor regression at 2.5 mg/kg, po; format: functional, organism-based; settings: Homo sapiens
BaF3 [20] = experiment: cells; settings: Mus musculus; remark: listed apart in the source
Description: Antiproliferative activity against mouse BaF3 cells harbouring ALK C1156Y mutant assessed as reduction in cell viability by Celltitre-Glo luminescent assay

BaF3 [21] = experiment: Antiproliferative activity against mouse BaF3 cells harbouring CD74-ROS1-S1986Y mutant assessed as reduction in cell viability incubated for 72 hrs by Celltitre-Glo luminescent assay; format: functional, cell-based; settings: BaF3, 72 h
[22] = target: T2, ALK tyrosine kinase receptor (Homo sapiens, UniProt Q9UM73)
Target sequence in this assay (Q9UM73 whole entry): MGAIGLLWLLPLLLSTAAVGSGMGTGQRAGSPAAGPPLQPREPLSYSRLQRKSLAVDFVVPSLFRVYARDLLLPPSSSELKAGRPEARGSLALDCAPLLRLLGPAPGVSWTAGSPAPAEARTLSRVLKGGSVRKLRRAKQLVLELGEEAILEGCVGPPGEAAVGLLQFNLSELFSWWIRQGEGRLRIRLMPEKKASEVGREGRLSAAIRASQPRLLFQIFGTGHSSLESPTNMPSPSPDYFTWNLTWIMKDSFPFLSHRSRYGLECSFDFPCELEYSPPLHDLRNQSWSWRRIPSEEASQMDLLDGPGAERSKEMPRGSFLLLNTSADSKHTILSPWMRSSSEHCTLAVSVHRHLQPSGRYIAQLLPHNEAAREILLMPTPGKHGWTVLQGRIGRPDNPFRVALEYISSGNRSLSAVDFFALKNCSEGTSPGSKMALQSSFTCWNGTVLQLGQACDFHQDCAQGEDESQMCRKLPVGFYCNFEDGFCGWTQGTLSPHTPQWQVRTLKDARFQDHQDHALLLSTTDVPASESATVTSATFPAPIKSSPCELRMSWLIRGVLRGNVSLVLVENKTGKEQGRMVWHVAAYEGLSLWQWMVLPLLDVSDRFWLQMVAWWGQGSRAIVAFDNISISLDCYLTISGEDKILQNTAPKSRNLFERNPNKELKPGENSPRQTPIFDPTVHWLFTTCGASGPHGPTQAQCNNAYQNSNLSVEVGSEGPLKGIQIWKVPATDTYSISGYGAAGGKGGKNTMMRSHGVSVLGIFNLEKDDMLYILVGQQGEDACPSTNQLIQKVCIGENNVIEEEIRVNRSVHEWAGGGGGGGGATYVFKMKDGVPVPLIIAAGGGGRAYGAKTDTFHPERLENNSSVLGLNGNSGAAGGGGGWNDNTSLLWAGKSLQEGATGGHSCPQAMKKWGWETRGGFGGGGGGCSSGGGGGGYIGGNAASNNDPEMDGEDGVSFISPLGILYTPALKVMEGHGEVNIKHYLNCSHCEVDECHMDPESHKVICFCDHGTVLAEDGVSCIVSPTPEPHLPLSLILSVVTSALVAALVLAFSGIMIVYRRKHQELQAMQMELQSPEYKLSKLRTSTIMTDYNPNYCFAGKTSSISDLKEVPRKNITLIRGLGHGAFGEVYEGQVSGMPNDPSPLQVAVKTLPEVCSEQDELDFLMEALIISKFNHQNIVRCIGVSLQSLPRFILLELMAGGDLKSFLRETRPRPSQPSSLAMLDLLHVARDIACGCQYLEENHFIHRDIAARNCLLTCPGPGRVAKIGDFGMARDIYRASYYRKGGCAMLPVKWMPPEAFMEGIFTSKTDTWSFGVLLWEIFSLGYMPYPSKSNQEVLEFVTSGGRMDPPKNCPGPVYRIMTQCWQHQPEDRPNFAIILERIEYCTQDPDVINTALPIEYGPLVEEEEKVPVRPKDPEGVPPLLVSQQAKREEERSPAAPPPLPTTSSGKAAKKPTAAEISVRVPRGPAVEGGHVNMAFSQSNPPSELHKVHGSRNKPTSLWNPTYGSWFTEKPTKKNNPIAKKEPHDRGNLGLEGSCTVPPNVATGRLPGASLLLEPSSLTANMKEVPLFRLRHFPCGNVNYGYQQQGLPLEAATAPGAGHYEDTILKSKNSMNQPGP

cells [23] = settings: Mus musculus, BaF3, 72 h; remark: listed apart in the source
BaF3 [24] = experiment: Antiproliferative activity against crizotinib resistant mouse BaF3 cells expressing EML4 fused ALK I1171N mutant assessed as reduction in cell viability incubated for 72 hrs by Celltitre-Glo luminescent assay; format: functional, cell-based; settings: BaF3, 72 h, read-out: IC50
LU-01-0319R [25] = experiment: Antitumor activity against crizotinib-resistant patient derived LU-01-0319R cells xenografted in nude mouse assessed as tumor regression at 10 mg/kg, po dosed once daily for 21 days; format: functional, organism-based; settings: Homo sapiens, time 21.0 day
[26] = Half-life in Beagle dog at 1 mg/kg, iv; format: ADME, organism-based, Canis lupus familiaris; settings: in vivo
KARPAS-299 = experiment: cells; settings: Homo sapiens
Description: Antiproliferative activity against human KARPAS-299 cells harbouring wild type ALK assessed as reduction in cell viability by Celltitre-Glo luminescent assay

[27] = target: ALK tyrosine kinase receptor (Homo sapiens, UniProt Q9UM73, C1156Y)
cells [28] = settings: Mus musculus, Ba/F3 EML4-ALK-G1202R, 72 h
[29] = Half-life in Balb/c nude mouse at 1 mg/kg, iv; format: ADME, organism-based; settings: in vivo
[30] = Volume of distribution at steady state in Beagle dog at 1 mg/kg, iv; format: ADME, organism-based, Canis lupus familiaris; settings: in vivo, read-out: Vdss
[31] = AUC (0 to last) in Sprague-Dawley rat at 8 mg/kg, po; format: ADME, organism-based; design: time 0 - last, dose 8 mg/kg, route po; settings: in vivo
[32] = Cmax in Cynomolgus monkey at 2 mg/kg, po; format: ADME, organism-based, Macaca fascicularis; design: dose 2 mg/kg, route po; settings: in vivo
[33] = Cmax in Balb/c nude mouse at 5 mg/kg, po; format: ADME, organism-based; design: dose 5 mg/kg, route po; settings: in vivo
BaF3 [34] = experiment: Antiproliferative activity against crizotinib resistant mouse BaF3 cells expressing EML4 fused ALK F1174C mutant assessed as reduction in cell viability incubated for 72 hrs by Celltitre-Glo luminescent assay; format: functional, cell-based; settings: BaF3, 72 h
BaF3 [35] = experiment: Antiproliferative activity against crizotinib resistant mouse BaF3 cells expressing EML4 fused ALK F1174V mutant assessed as reduction in cell viability incubated for 72 hrs by Celltitre-Glo luminescent assay; format: functional, cell-based; settings: BaF3, 72 h
[36] = Volume of distribution at steady state in Balb/c nude mouse at 1 mg/kg, iv; format: ADME, organism-based; settings: in vivo, read-out: Vdss
cells [37] = settings: Mus musculus, BaF3, 72 h; remark: listed apart in the source
NCI-H3122 [38] = experiment: Inhibition of ERK phosphorylation in human NCI-H3122 cells by Western blotting analysis; format: cell-based; settings: DDE = dose-dependent effect
BaF3 [39] = experiment: Antiproliferative activity against crizotinib resistant mouse BaF3 cells expressing EML4 fused ALK V1180L mutant assessed as reduction in cell viability incubated for 72 hrs by Celltitre-Glo luminescent assay; format: functional, cell-based; settings: BaF3, 72 h
[40] = Oral bioavailability in Balb/c nude mouse at 5 mg/kg; format: ADME, organism-based; settings: in vivo
BaF3 [41] = experiment: Antiproliferative activity against crizotinib resistant mouse BaF3 cells expressing EML4 fused ALK I1171T mutant assessed as reduction in cell viability incubated for 72 hrs by Celltitre-Glo luminescent assay; format: functional, cell-based; settings: BaF3, 72 h
[42] = AUC (0 to last) in Balb/c nude mouse at 5 mg/kg, po; format: ADME, organism-based; design: time 0 - last, dose 5 mg/kg, route po; settings: in vivo
[43] = Clearance in Beagle dog at 1 mg/kg, iv; format: ADME, organism-based, Canis lupus familiaris; settings: in vivo
[44] = target: T2, ALK tyrosine kinase receptor; experiment: Inhibition of ALK phosphorylation in human NCI-H3122 cells by Western blotting analysis; format: cell-based; settings: DDE = dose-dependent effect
Target sequence in this assay (Q9UM73 19-1620 limits assumed): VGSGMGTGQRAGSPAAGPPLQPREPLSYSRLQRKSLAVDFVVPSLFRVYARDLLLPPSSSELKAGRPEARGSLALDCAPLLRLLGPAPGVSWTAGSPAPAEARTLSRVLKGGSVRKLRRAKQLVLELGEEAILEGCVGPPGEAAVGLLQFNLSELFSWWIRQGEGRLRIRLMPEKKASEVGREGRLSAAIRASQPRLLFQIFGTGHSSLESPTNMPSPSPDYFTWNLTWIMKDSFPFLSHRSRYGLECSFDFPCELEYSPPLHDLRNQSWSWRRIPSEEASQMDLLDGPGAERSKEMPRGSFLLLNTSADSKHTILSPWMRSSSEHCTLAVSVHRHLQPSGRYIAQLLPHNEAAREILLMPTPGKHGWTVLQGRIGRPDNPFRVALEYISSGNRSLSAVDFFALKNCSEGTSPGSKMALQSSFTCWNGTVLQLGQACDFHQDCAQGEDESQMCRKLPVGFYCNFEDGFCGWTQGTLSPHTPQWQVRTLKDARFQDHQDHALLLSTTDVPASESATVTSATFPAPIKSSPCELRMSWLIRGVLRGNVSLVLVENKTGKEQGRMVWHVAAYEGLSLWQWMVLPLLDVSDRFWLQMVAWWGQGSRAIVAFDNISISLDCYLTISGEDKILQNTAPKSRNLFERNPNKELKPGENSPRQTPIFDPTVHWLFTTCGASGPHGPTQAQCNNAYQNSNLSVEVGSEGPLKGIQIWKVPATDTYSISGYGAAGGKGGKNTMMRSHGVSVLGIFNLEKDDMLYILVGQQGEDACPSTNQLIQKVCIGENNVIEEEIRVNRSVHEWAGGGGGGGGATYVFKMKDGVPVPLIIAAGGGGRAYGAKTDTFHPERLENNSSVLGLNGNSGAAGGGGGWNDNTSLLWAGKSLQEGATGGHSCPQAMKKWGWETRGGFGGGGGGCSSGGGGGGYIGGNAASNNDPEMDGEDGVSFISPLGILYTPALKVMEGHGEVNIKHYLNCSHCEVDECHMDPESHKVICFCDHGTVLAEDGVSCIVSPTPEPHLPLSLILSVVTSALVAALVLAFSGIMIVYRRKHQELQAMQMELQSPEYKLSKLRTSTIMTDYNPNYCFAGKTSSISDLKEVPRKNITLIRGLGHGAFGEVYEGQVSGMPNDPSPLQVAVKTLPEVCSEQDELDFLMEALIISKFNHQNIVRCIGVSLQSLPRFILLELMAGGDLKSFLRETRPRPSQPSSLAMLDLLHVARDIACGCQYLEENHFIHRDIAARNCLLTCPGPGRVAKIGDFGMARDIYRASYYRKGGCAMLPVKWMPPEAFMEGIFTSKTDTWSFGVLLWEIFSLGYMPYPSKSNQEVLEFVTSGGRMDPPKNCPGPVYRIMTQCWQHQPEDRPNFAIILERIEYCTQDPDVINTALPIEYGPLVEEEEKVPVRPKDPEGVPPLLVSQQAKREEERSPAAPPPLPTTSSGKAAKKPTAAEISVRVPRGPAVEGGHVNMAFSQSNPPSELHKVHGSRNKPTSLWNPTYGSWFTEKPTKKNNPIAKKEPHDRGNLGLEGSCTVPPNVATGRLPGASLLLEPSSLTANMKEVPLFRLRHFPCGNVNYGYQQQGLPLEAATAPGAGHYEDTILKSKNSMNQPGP

Sequence of ALK tyrosine kinase receptor (Homo sapiens, UniProt Q9UM73, C1156Y) (Q9UM73 19-1620 C1156Y limits assumed): as the sequence (Q9UM73 19-1620 limits assumed) above, with C1138Y counted along it

For COc1cc(N2CCC3(CCN(C)CC3)CC2)ccc1Nc1ncc(Cl)c(Nc2ccccc2P(C)(C)=O)n1 [IRUPLINALKIB], the IC50 (cells [1]) was 36 nM, the clearance [2] was 22.4 mL/min/kg and the IC50 (BaF3 [3]) was 4 nM. For the same compound, the IC50 (BaF3 [4]) was 32 nM, the IC50 (BaF3 [5]) was 22 nM and the Activity [6] was “Non-Toxic”. The IC50 (BaF3 [7]) was 12 nM, the IC50 (BaF3 [8]) was 12 nM and the Cmax [9] was 499 ng/mL. The IC50 (cells [10]) was 21 nM, the Activity [11] was “Non-Toxic” and the IC50 (BaF3 [12]) was 13 nM. The Activity (LU-01-0319R [13]) was “Active”, the inhibition (NCI-H3122 [14]) was “Active” and the IC50 (BaF3 [15]) was 1 nM. For the same compound, the IC50 (BaF3 [16]) was 33 nM, the inhibition [17] was “Dde” and the AUC(0-t) [18] was 598 ng·h/mL. For the same compound, the IC50 (BaF3 [19]) was 24 nM, the Activity (LU-01-0319) was “Active” and the IC50 (BaF3 [20]) was 21 nM. For the same compound, the IC50 (BaF3 [21]) was 15 nM, the IC50 [22] was 1.6 nM and the IC50 (cells [23]) was 36 nM. The IC50 (BaF3 [24]) was 17 nM, the Activity (LU-01-0319R [25]) was “Active” and the half-life [26] was 6.47 h. For the same compound, the IC50 (KARPAS-299) was 14.5 nM, the IC50 [27] was 1.8 nM and the IC50 (cells [28]) was 96 nM. For the same compound, the half-life [29] was 1.38 h, the Vd [30] was 4.6 L/kg and the AUC(0-t) [31] was 4000 ng·h/mL. For the same compound, the Cmax [32] was 92.2 ng/mL, the Cmax [33] was 741 ng/mL and the IC50 (BaF3 [34]) was 36 nM. It also gave an IC50 (BaF3 [35]) of 22 nM, a Vd [36] of 2.33 L/kg and an IC50 (cells [37]) of 11 nM. For the same compound, the inhibition (NCI-H3122 [38]) was “Dde”, the IC50 (BaF3 [39]) was 8 nM and the bioavailability [40] was 66.2%. It also gave an IC50 (BaF3 [41]) of 11 nM, an AUC(0-t) [42] of 2450 ng·h/mL and a clearance [43] of 8.6 mL/min/kg. The inhibition [44] was “Dde”.
